In patent US20250304567A1, “PYRROLIDIONE DERIVATIVES AS INHIBITORS OF NF KAPPA B INDUCING KINASE” (priority 2022, published 2025):
Where two headings read alike, the source gives them in different places.

Tests used:
[1] = target: Recombinant Human NF-kappaB-Inducing Kinase (NIK/MAP3K14) (Homo sapiens, UniProt Q99558); assay: Inhibition of auto-phosphorylation of recombinant human NIK/MAP3K14 activity (AlphaScreen); assay type: biochemical; conditions: 5 μM ATP, 1 nM NIK, average if tested more than once
Sequence of Recombinant Human NF-kappaB-Inducing Kinase (NIK/MAP3K14) (Q99558 whole entry): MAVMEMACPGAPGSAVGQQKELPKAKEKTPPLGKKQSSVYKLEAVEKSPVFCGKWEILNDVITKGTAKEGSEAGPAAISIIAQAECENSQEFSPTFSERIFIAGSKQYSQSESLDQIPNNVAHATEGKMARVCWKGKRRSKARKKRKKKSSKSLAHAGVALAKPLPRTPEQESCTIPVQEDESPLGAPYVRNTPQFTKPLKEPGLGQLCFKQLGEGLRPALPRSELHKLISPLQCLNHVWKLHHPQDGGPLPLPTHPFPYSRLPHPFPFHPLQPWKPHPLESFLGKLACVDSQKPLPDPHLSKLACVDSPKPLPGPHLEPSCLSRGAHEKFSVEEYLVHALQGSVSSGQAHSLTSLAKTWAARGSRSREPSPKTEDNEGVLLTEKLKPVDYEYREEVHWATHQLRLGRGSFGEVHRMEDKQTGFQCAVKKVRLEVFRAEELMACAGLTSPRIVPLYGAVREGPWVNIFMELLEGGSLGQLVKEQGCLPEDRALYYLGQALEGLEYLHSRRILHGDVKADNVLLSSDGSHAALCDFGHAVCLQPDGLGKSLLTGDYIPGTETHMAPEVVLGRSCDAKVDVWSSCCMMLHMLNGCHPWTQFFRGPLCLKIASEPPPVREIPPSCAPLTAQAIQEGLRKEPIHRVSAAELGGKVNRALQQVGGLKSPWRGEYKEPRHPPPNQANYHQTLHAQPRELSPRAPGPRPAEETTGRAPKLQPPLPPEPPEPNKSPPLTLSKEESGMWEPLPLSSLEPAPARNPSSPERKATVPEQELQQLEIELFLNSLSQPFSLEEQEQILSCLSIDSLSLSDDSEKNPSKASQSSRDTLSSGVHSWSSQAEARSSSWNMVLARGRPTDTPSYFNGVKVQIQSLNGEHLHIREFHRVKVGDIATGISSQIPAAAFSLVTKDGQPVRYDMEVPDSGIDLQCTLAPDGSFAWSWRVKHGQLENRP
In short: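 AlphaScreen detection of phospho-Ser176/180 after 1 nM GST-NIK auto-phosphorylates for 2 h at 25 °C with 5 μM ATP (50 mM Tris pH 7.5, 0.7% DMSO). IC50s come from sigmoidal curves of % inhibition against log dose, using enzyme-free, ATP-free low controls and full-activity high controls.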

[2] = system: p-IKKa levels in L363 (NIK translocated multiple myeloma) cells; assay: Effect of compounds on p-IKKa levels in L363 (NIK translocated multiple myeloma) cells (AlphaLISA SureFire Ultra p-IKKa Ser176/180); assay type: cell-based, human; conditions: average if tested more than once, read-out: Assay 2 IC50
In short: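 Phospho-IKKa (Ser176/180) in lysates quantified by AlphaLISA after 6 h compound exposure, 11-point threefold dilutions, 0.3% DMSO. L363 cells were pre-stimulated overnight and assayed with 250 ng/ml BAFF and 10 μM MG132; % inhibition fitted sigmoidally for IC50, duplicate curves.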

[3] = Homo sapiens, L-363, p-IKKa levels in L363 cells

CN1CC[C@@](O)(c2cccc(-c3nc(-c4ccnc(Nc5ccnnc5)n4)cs3)c2)C1=O [Example 267, (R)-3-hydroxy-1-methyl-3-(3-(4-(2-(pyridazin-4-ylamino)pyrimidin-4-yl)thiazol-2-yl)phenyl)pyrrolidin-2-one]
IC50 [1]: > 501 nM
IC50 [2, 3]: > 501 nM

CC(=O)N1CC[C@H](Nc2nccc(-c3csc(-c4cccc([C@]5(O)CCN(C)C5=O)c4)n3)n2)C1 [Example 221]
IC50 [1]: 100 to 500 nM
IC50 [2, 3]: > 501 nM

COc1nn(C)cc1Nc1nccc(-c2csc(-c3cccc([C@]4(O)CCN(C)C4=O)c3)n2)n1 [Example 104, (R)-3-hydroxy-3-(3-(4-(2-((3-methoxy-1-methyl-1H-pyrazol-4-yl)amino)pyrimidin-4-yl)thiazol-2-yl)phenyl)-1-methylpyrrolidin-2-one]
IC50 [1]: < 100 nM
IC50 [2, 3]: < 100 nM

CN1CC[C@@](O)(c2cccc(-c3nc(-c4ccnc(Nc5cccc(OC(F)(F)F)n5)n4)cs3)c2)C1=O [Example 167, (R)-3-Hydroxy-1-methyl-3-(3-(4-(2-((6-(trifluoromethoxy)pyridin-2-yl)amino)pyrimidin-4-yl)thiazol-2-yl)phenyl)pyrrolidin-2-one]
IC50 [1]: < 100 nM
IC50 [2, 3]: > 501 nM

CN1CC[C@@](O)(c2cccc(-c3nc(-c4ccnc(Nc5ccccn5)n4)cs3)c2)C1=O [Example 77, (R)-3-hydroxy-1-methyl-3-(3-(4-(2-(pyridin-2-ylamino)pyrimidin-4-yl)thiazol-2-yl)phenyl)pyrrolidin-2-one]
IC50 [1]: < 100 nM
IC50 [2, 3]: > 501 nM

CN1CC[C@@](O)(c2cccc(-c3ccn(-c4ccnc(Nc5cn(CC(F)F)nc5OC5CC5)n4)n3)c2)C1=O [Example 102, (R)-3-(3-(1-(2-((3-cyclopropoxy-1-(2,2-difluoroethyl)-1H-pyrazol-4-yl)amino)pyrimidin-4-yl)-1H-pyrazol-3-yl)phenyl)-3-hydroxy-1-methylpyrrolidin-2-one]
IC50 [1]: < 100 nM
IC50 [2, 3]: < 100 nM

CN1CC[C@@](O)(c2cccc(-c3nc(-c4ccnc(NCc5ccccn5)n4)cs3)c2)C1=O [Example 182]
IC50 [1]: 100 to 500 nM
IC50 [2, 3]: > 501 nM

CN1CC(F)(F)C(O)(c2cccc(-c3nc(-c4ccnc(Nc5ccn(C)n5)n4)cs3)c2)C1=O (single isomer, unassigned) [Example 35, 4,4-difluoro-3-hydroxy-1-methyl-3-(3-(4-(2-((1-methyl-1H-pyrazol-3-yl)amino)pyrimidin-4-yl)thiazol-2-yl)phenyl)pyrrolidin-2-one]
IC50 [1]: > 501 nM
IC50 ([2]; p-IKKa levels in L363 cells): > 501 nM

CN1CC[C@@](O)(c2cccc(-c3nc(-c4ccnc(Nc5cn(C)nc5OC(F)F)n4)cs3)c2)C1=O [Example 99, (R)-3-(3-(4-(2-((3-(difluoromethoxy)-1-methyl-1H-pyrazol-4-yl)amino)pyrimidin-4-yl)thiazol-2-yl)phenyl)-3-hydroxy-1-methylpyrrolidin-2-one]
IC50 [1]: < 100 nM
IC50 [2, 3]: < 100 nM

CN1CCn2nc(Nc3nccc(-c4csc(-c5cccc([C@]6(O)CCN(C)C6=O)c5)n4)n3)cc2C1=O [Example 53, (R)-2-((4-(2-(3-(3-Hydroxy-1-methyl-2-oxopyrrolidin-3-yl)phenyl)thiazol-4-yl)pyrimidin-2-yl)amino)-5-methyl-6,7-dihydropyrazolo[1,5-a]pyrazin-4(5H)-one]
IC50 [1]: < 100 nM
IC50 [2, 3]: 100 to 500 nM

CNC(=O)c1cc(Nc2nccc(-c3csc(-c4cccc([C@]5(O)CCN(C)C5=O)c4)n3)n2)c(OC2CC2)cc1F [Example 12, (R)-4-Cyclopropoxy-2-fluoro-5-((4-(2-(3-(3-hydroxy-1-methyl-2-oxopyrrolidin-3-yl)phenyl)thiazol-4-yl)pyrimidin-2-yl)amino)-N-methylbenzamide]
IC50 [1]: < 100 nM
IC50 [2, 3]: 100 to 500 nM

CN1CC[C@@](O)(c2cccc(-c3ccn(-c4ccnc(Nc5cnn(C)c5)n4)n3)c2)C1=O [Example 90, (R)-3-hydroxy-1-methyl-3-(3-(1-(2-((1-methyl-1H-pyrazol-4-yl)amino)pyrimidin-4-yl)-1H-pyrazol-3-yl)phenyl)pyrrolidin-2-one]
IC50 [1]: < 100 nM
IC50 [2, 3]: 100 to 500 nM

CN1CC[C@@](O)(c2cncc(-c3ccn(-c4ccnc(Nc5cn(CC(F)F)nc5OC5CC5)n4)n3)c2)C1=O (single isomer, unassigned) [Example 145, (R)-3-(5-(1-(2-((3-cyclopropoxy-1-(2,2-difluoroethyl)-1H-pyrazol-4-yl)amino)pyrimidin-4-yl)-1H-pyrazol-3-yl)pyridin-3-yl)-3-hydroxy-1-methylpyrrolidin-2-one or (S)-3-(5-(1-(2-((3-cyclopropoxy-1-(2,2-difluoroethyl)-1H-pyrazol-4-yl)amino)pyrimidin-4-yl)-1H-pyrazol-3-yl)pyridin-3-yl)-3-hydroxy-1-methylpyrrolidin-2-one]
IC50 [1]: < 100 nM
IC50 [2, 3]: < 100 nM

CN1CC[C@@](O)(c2cccc(-c3nc(-c4ccnc(Nc5cn6ccccc6n5)n4)cs3)c2)C1=O [Example 179]
IC50 [1]: > 501 nM
IC50 [2, 3]: > 501 nM

CN1CC[C@@](O)(c2cccc(-c3nc(-c4ccnc(NCCCOCC(F)(F)F)n4)cs3)c2)C1=O [Example 238]
IC50 [1]: 100 to 500 nM
IC50 [2, 3]: > 501 nM

CCn1ncc(C)c1Nc1nccc(-c2csc(-c3cccc([C@]4(O)CCN(C)C4=O)c3)n2)n1 [Example 64, (R)-3-(3-(4-(2-((1-ethyl-4-methyl-1H-pyrazol-5-yl)amino)pyrimidin-4-yl)thiazol-2-yl)phenyl)-3-hydroxy-1-methylpyrrolidin-2-one]
IC50 [1]: > 501 nM
IC50 [2, 3]: > 501 nM

CN1CC[C@@](O)(c2ccnc(-c3ccn(-c4ccnc(Nc5cnn6cccnc56)n4)n3)c2)C1=O (single isomer, unassigned) [Example 149, (R)-3-hydroxy-1-methyl-3-(2-(1-(2-(pyrazolo[1,5-a]pyrimidin-3-ylamino)pyrimidin-4-yl)-1H-pyrazol-3-yl)pyridin-4-yl)pyrrolidin-2-one or (S)-3-hydroxy-1-methyl-3-(2-(1-(2-(pyrazolo[1,5-a]pyrimidin-3-ylamino)pyrimidin-4-yl)-1H-pyrazol-3-yl)pyridin-4-yl)pyrrolidin-2-one]
IC50 [1]: < 100 nM
IC50 [2, 3]: > 501 nM

CN1CC[C@@](O)(c2cccc(-c3nc(-c4ccnc(Nc5cn(C)nc5OCC(F)F)n4)cs3)c2)C1=O [Example 96, (R)-3-(3-(4-(2-((3-(2,2-difluoroethoxy)-1-methyl-1H-pyrazol-4-yl)amino)pyrimidin-4-yl)thiazol-2-yl)phenyl)-3-hydroxy-1-methylpyrrolidin-2-one]
IC50 [1]: < 100 nM
IC50 [2, 3]: < 100 nM

CN1CC[C@@](O)(c2cccc(-c3csc(-c4ccnc(Nc5cnn(CC(F)F)c5)n4)n3)c2)C1=O [Example 80, (R)-3-(3-(2-(2-((1-(2,2-difluoroethyl)-1H-pyrazol-4-yl)amino)pyrimidin-4-yl)thiazol-4-yl)phenyl)-3-hydroxy-1-methylpyrrolidin-2-one]
IC50 [1]: < 100 nM
IC50 [2, 3]: < 100 nM

CN1CC[C@@](O)(c2cccc(-c3nc(-c4ccnc(Nc5cn(C)nc5C(F)(F)F)n4)cs3)c2)C1=O [Example 280, (R)-3-Hydroxy-1-methyl-3-(3-(4-(2-((1-methyl-3-(trifluoromethyl)-1H-pyrazol-4-yl)amino)pyrimidin-4-yl)thiazol-2-yl)phenyl)pyrrolidin-2-one]
IC50 [1]: < 100 nM
IC50 [2, 3]: 100 to 500 nM

Cc1ncc(Nc2nccc(-c3csc(-c4cccc([C@]5(O)CCN(C)C5=O)c4)n3)n2)s1 [Example 249]
IC50 [1]: > 501 nM
IC50 [2, 3]: > 501 nM

C[C@H](Nc1nccc(-n2ccc(-c3cccc([C@]4(O)CCN(C)C4=O)c3)n2)n1)c1ccnn1C (single isomer, unassigned) [Example 91]
IC50 [1]: < 100 nM
IC50 [2, 3]: 100 to 500 nM

CN1CC[C@@](O)(c2cccc(-c3nc(-c4ccnc(Nc5cc(C(F)(F)F)nn5C)n4)cs3)c2)C1=O [Example 281, (R)-3-Hydroxy-1-methyl-3-(3-(4-(2-((1-methyl-3-(trifluoromethyl)-1H-pyrazol-5-yl)amino)pyrimidin-4-yl)thiazol-2-yl)phenyl)pyrrolidin-2-one]
IC50 [1]: < 100 nM
IC50 [2, 3]: > 501 nM

CN1CC[C@@](O)(c2cccc(-c3nc(-c4ccnc(Nc5cnn(C6CCOC6)c5)n4)cs3)c2)C1=O (single isomer, unassigned) [Example 19]
IC50 [1]: < 100 nM
IC50 ([2]; p-IKKa levels in L363 cells): < 100 nM

CN1CCC(O)(c2cc(C#N)cc(-c3csc(-c4ccnc(Nc5ccn(C)n5)n4)n3)c2)C1=O (single isomer, unassigned) [Example 58, 3-(3-hydroxy-1-methyl-2-oxopyrrolidin-3-yl)-5-(2-(2-((1-methyl-1H-pyrazol-3-yl)amino)pyrimidin-4-yl)thiazol-4-yl)benzonitrile]
IC50 [1]: > 501 nM
IC50 ([2]; p-IKKa levels in L363 cells): > 501 nM

CC(Nc1nccc(-c2csc(-c3cccc([C@]4(O)CCN(C)C4=O)c3)n2)n1)c1cnn(C)c1 (stereo partly drawn) [Example 121, (R)-3-hydroxy-1-methyl-3-(3-(4-(2-(((R,S)-1-(1-methyl-1H-pyrazol-4-yl)ethyl)amino)pyrimidin-4-yl)thiazol-2-yl)phenyl)pyrrolidin-2-one]
IC50 [1]: < 100 nM
IC50 [2, 3]: 100 to 500 nM

CN1CC[C@@](O)(c2cccc(-c3nc(-c4ccnc(Nc5cnn(CC6CC6)c5)n4)cs3)c2)C1=O [Example 287, (R)-3-(3-(4-(2-((1-(cyclopropylmethyl)-1H-pyrazol-4-yl)amino)pyrimidin-4-yl)thiazol-2-yl)phenyl)-3-hydroxy-1-methylpyrrolidin-2-one]
IC50 [1]: < 100 nM
IC50 [2, 3]: 100 to 500 nM

COCCCNc1nccc(-c2csc(-c3cccc([C@]4(O)CCN(C)C4=O)c3)n2)n1 [Example 242]
IC50 [1]: 100 to 500 nM
IC50 [2, 3]: > 501 nM
